Test results: publication PMC6920875, “Dithiocarbamate as a Valuable Scaffold for the Inhibition of Metallo-β-Lactmases” (Biomolecules, 2019)

Assays:
NDM-1 [1] = target: T1, NDM-1 (Klebsiella pneumoniae, UniProt C7C422); assay: Inhibition kinetics, Lineweaver–Burk plots; type: biochemical
T1 construct: made in house; host or cells: E. coli BL21 (DE3), plasmid pET26b-NDM-1
Procedure: (§1) The dithiocarbamates, MβLs and substrates samples were prepared with 30 mM Tris, pH 7.0. […] Enzymes and inhibitors were pre-incubated for 5 min before adding substrate. […] The IC50 values were nonlinearly fitted by plotting the average percentage inhibition against inhibitor concentration. The inhibition modes of DC1 to ImiS, NDM-1 and L1 were assayed by generating Lineweaver–Burk plots, and Ki values were obtained by fitting initial velocity versus substrate concentration at each inhibitor concentration, using SigmaPlot 12.0 (Systat Software Inc., San Jose, CA, USA).
(§2) To further identify the inhibition mode of the DCs against MβLs, we performed inhibition kinetics of NDM-1, ImiS and L1 by DC1, at different concentrations, with different substrate concentrations. […] Enzyme and inhibitors were pre-incubated for 5 min before starting the kinetic assays. All experimental hydrolytic rates of substrates were determined in triplicate. The inhibition mode of dithiocarbamates on MβLs was identified by generating Lineweaver–Burk plots, and Ki values were gained by fitting the initial velocity versus substrate concentration at each inhibitor concentration, using SigmaPlot 12.0.

L1 [2] = target: T2, L1 (Stenotrophomonas maltophilia, UniProt P52700); assay: Inhibition kinetics, Lineweaver–Burk plots; type: biochemical
T2 construct: made in house; host or cells: E. coli BL21 (DE3), plasmid pET-26b-L1
Procedure: as §1, §2

ImiS [3] = target: T3, ImiS (Aeromonas veronii, UniProt O31272); assay: Inhibition kinetics, Lineweaver–Burk plots; type: biochemical, Aeromonas veronii bv. sobria
T3 construct: made in house; host or cells: E. coli BL21 (DE3), plasmid pET-26b-ImiS
Procedure: as §1, §2
Target sequence in this assay (O31272 28-255): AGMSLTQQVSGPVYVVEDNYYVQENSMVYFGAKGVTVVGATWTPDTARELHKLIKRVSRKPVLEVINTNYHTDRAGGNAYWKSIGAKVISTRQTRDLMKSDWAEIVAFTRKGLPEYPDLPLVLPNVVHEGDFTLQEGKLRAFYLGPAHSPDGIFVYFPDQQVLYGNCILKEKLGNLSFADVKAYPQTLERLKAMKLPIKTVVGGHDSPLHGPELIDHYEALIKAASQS

ImiS [4] = target: T3, ImiS; assay: Inhibitor reversibility, activity recovery after rapid 100-fold dilution; type: biochemical, Aeromonas veronii bv. sobria; conditions: 5.0 μM enzyme, 0.7 μM inhibitor, 10 min pre-incubation
Procedure: It can be observed in Figure 4d–f that the Q value remains almost unchanged in the presence or absence of inhibitors, likely because the formation of the enzyme-inhibitor complex (EI), that slowed down substrate hydrolysis, was reversible. […] We assayed the binding reversibility of DC1 to MβLs by measuring the enzymatic activity recovery after a large, rapid dilution of the MβL-DC1 complex.
Determination of inhibitor reversibility
NDM-1, ImiS and L1 were incubated at a concentration of 1.3, 5.0 and 5.8 μM, which is 100-fold over the concentration required for the activity assay, with DC1 at a concentration of 1.5, 0.7 and […]
After 10 minutes pre-incubation, the recovery of enzymatic activity was determined after rapid and large dilution (100-fold) with the reaction […]
Figure S2. Recovery of NDM-1 (a), ImiS (b) and L1 (c) activity after rapid dilution of the enzyme-inhibitor complex. The curve in black refers to the control sample pre-incubated and diluted in the absence of inhibitor. Curves in red refer to MβLs pre-incubated with DC1. […]
Target sequence in this assay (O31272 28-255 limits assumed): as the sequence (O31272 28-255) above

NDM-1 [5] = target: T1, NDM-1; assay: Isothermal titration calorimetry (ITC) of MβL-catalysed substrate hydrolysis; type: biochemical; conditions: 150 nM enzyme, 1 mM cefazolin, inhibitor 0-200 μM, 25 °C
Procedure: (§3) Isothermal titration calorimetry (ITC) assays were performed on a Malvern MicroCal iTC 200 instrument (Malvern Instruments, Malvern, UK) at 25 °C, by a single injection mode. During ITC experiments the reference cell was filled with degassed water. The MβLs, substrates, and inhibitor DC1 were prepared with 50 mM Tris, pH 7.0. The concentration of MβLs used was in the range 100–200 nM, concentration of substrate was 1 mM, and concentrations of DC1 were varied between 0 and 200 µM. Before starting the measurement, the enzyme was pre-incubated with different concentrations of DC1 for 5 min, and then delivered into the sample cell (210 µL). The hydrolysis reaction in the absence of inhibitors was also determined as a control. The stirring rate of the syringe was set to 750 rpm. The system was equilibrated at the desired 25 °C. […] Heat flow was recorded as a function of time. Data were collected every 1 s until the signal reached the baseline and continued to be recorded for the length of time necessary to generate the final baseline.
(§4) Isothermal titration calorimetry (ITC) was also employed, to identify the inhibition of the dithiocarbamates on MβLs and study their thermodynamic behaviour. […]

L1 [6] = target: T2, L1; assay: as above; type: biochemical; conditions: 100 nM enzyme, 1 mM cefazolin, inhibitor 0-200 μM, 25 °C
Procedure: as §3, §4

NDM-1 [7] = target: T1, NDM-1; assay: biochemical; conditions: read-out: inhibition against NDM-1
Procedure: as §1
(§5) To evaluate the inhibitory activity of the dithiocarbamates, we over-expressed and purified MβLs NDM-1, VIM-2 and IMP-1 (B1), ImiS (B2), and L1 (B3) from three subclasses as previously reported. The inhibition experiments were performed with an Agilent UV8453 spectrometer. […] The concentrations of inhibitors were varied between 0 and 200 μM. The initial reaction rates were determined in the absence and presence of inhibitors in triplicate, and the generated average values were recorded.

IMP-1 = target: T4, IMP-1 (Serratia marcescens, UniProt P52699); assay: biochemical; conditions: read-out: inhibition against IMP-1
T4 construct: made in house; host or cells: E. coli BL21 (DE3), plasmid pET26b-IMP-1
Procedure: as §1, §5

L1 [8] = target: T2, L1; assay: biochemical; conditions: read-out: inhibition against L1
Procedure: as §1, §5

T2 sequence (P52700 34-290): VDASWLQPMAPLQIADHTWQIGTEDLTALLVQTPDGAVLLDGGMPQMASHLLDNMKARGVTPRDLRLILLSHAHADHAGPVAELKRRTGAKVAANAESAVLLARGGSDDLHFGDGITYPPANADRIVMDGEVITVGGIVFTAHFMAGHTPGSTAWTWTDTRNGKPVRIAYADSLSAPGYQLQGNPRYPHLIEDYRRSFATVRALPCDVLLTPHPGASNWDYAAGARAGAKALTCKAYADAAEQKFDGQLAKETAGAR
T1 sequence (C7C422 29-270 limits assumed): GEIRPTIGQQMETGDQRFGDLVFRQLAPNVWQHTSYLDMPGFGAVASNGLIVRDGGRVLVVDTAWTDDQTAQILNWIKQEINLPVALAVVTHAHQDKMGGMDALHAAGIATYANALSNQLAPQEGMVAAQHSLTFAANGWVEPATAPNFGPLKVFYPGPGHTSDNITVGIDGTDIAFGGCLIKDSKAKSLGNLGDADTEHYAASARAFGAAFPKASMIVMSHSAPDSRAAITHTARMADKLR
T4 sequence (P52699 19-246 limits assumed): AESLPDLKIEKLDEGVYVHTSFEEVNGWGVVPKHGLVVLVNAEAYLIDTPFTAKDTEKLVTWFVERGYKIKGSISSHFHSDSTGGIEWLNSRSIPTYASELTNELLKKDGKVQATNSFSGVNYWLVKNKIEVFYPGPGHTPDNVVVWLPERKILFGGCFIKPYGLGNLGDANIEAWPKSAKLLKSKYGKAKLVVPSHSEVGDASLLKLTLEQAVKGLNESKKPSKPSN

For `O=C(NNC(=S)[S][K])c1ccccc1O` [DC1], the “inhibition mode against NDM-1” value (NDM-1 [1]; Lineweaver–Burk plots) was “partially mixed inhibition”, the Ki (NDM-1 [1]; read-out: Ki against NDM-1, cefazolin 20-120 µM, inhibitor 0-20 μM, SigmaPlot fit) was 290 nM and the “inhibition mode against L1” value (L1 [2]; Lineweaver–Burk plots) was “partially mixed inhibition”. The Ki (L1 [2]; read-out: Ki against L1, cefazolin 20-120 µM, inhibitor 0-20 μM, SigmaPlot fit) was 5060 nM, the “inhibition mode against ImiS” value (ImiS [3]; Lineweaver–Burk plots) was “partially mixed inhibition” and the Ki (ImiS [3]; read-out: Ki against ImiS, imipenem 20-120 µM, inhibitor 0-20 μM, SigmaPlot fit) was 140 nM. For the same compound, the “reversibility, recovery of ImiS activity after rapid dilution” value (ImiS [4]) was “reversible inhibitor”, the melting point was 264 to 265 °C and the “reversibility of inhibition of NDM-1 by ITC (total heat Q constant)” value (NDM-1 [5]) was “reversible”. The “reversibility of inhibition of L1 by ITC (total heat Q constant)” value (L1 [6]) was “reversible”, the inhibition at 20 µM (NDM-1 [7]) was greater than 90% and the inhibition at 10 µM (IMP-1) was greater than 90%. The inhibition at 8 µM (L1 [8]) was greater than 90%.
